Values quoted from earlier work, collected in paper PMC8177746 (ACS applied materials & interfaces, 2020).

Tested on: Staphylococcus aureus
Conditions: ref 14 (Lai et al.)

ILGPVLGLVSDTLDDVLGIL-NH2 [MH5]
MIC: 80 µM
